Residues, ends and D or L forms follow the SMILES beside them.
How the values were obtained:
[1] = target: T1, PDZ2 domain of human tyrosine phosphatase 1E (hPTP1E) (Homo sapiens, UniProt Q12923); assay: CIDNP-KD ligand titration (photo-CIDNP hyperpolarized NMR); type: binding
T1 construct: the constructs used for the PDZ2 domain of human tyrosine phosphatase 1E; polyhistidine (N); made in house; host or cells: Escherichia coli BL21 (DE3)
T1 sequence (Q12923 1368-1452 limits assumed): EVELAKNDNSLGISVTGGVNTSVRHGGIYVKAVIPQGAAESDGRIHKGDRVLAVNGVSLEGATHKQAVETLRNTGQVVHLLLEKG
Source text: For both STD-NMR and CIDNP-KD, there is an initial buildup of the signal at the start of the irradiation. However, the mechanisms underlying it and, thus, the kinetics of the signal buildup are different between the techniques. In STD-NMR, the saturation of L starts to build up as soon as the irradiation of the protein begins because preformed PL complexes can be immediately saturated. However, in CIDNP-KD, the preformed PL complexes are not CIDNP-active. Therefore, a free L must first be hyperpolarized and then bind to P before any signal reduction is observable. Therefore, we will use the AF(ti) corresponding to the steady state in contrast to STD-NMR, where one needs to measure the initial growth of the amplification factor to account for the ligand rebinding effects, which are significant at low ligand-to-protein ratios;[7] there is no need for an initial amplification factor in CIDNP-KD. During the photo-CIDNP process, only 0.1–1% of the ligand becomes hyperpolarized such that even at low ligand-to-protein ratios, the rebinding of L* is not a significant factor. Therefore, one needs to only assess the time to reach a steady-state amplification factor AFss, whose value is measured at a series of ligand concentrations, and then fit eq 5 to determine the proportionality factor α and the dissociation constant KD (Figure 1D,E) [drawing 5] 5 Affinities are obtained with the CIDNP-KD method as follows. The ligand of interest and the photosensitizer are prepared as titration series in the presence and absence of the target protein (Figure 1A) and measured with the Cryolight setup (Figure 1B,[23]), which allows the automatization with an autosampler. The photo-CIDNP signal builds up within 2 s (Figure 1C). It allows us to measure the irradiation time-dependent photo-CIDNP buildup of the ligand NMR signal in the presence and absence of protein in under a minute per sample (Figure S1A). These signal intensities are converted into AF(ti) with eq 4 (Figure S1B), giving an individual titration data point in the corresponding ligand titration curve (Figure S1C). The experiment is repeated at different ligand concentrations to build the titration curve fitted using eq 5, yielding the KD (Figure 1E,F). The entire measurement of all the photo-CIDNP spectra of 7 titration points (14 measurements) takes about 7 min in measurement time, plus the time to exchange the samples with the autosampler (Figure 1D).
Figure 2 presents the CIDNP-KD titration curves for each peptide with 20 μM PDZ2 in (A) and 10 μM PDZ2 in (B to D). The curves were obtained using the workflow described in the introduction for each proton of tryptophan that has sufficient photo-CIDNP signal enhancement and signal reduction upon binding (Figure S2).
Figure 2 Affinity determination of different peptides binding to the hPDZ2 domain by CIDNP-KD within a few minutes. Ligand titration of (A) WSAV, (B) WVSAV, (C) WQVSAV, and (D) WEQVSAV against the human tyrosine phosphatase PDZ2 domain (20 μM for WSAV, 10 μM for others) as described in Figures 1 and S1. The plots contain the titration curves for all protons of the tryptophan residue that undergo signal enhancement through photo-CIDNP and display sufficient quenching upon protein binding. The individual data points are measured with single-scan experiments with laser irradiation durations where t > tss: (A) 1500 ms, (B) 2000 ms, (C) 2000 ms, and (D) 2000 ms.
Expression and purification were carried out as in previously reported procedures. In short, expression in Escherichia coli cells (BL21 (DE3)) and purification via Ni-NTA chromatography as the constructs used for the PDZ2 domain of human tyrosine phosphatase 1E and human PIN1 both contained N-terminal polyhistidine tags. Both protein constructs were measured in an NMR buffer consisting of 50 mM NaCl, 20 mM KPO4, and 10% D2O at pH 6.8. For the control [^1H, ^15N]-HSQC experiments, the PDZ2 domain was expressed in ^15N-enriched minimal medium.[34],[43] […]

[2] = target: T1, PDZ2 domain of human tyrosine phosphatase 1E (hPTP1E); assay: 2D [1H,15N]-HSQC chemical shift perturbation titration; type: binding; settings: 30 μM 15N PDZ2, pH 6.8, 298 K
Protocol: We compared the affinities of the peptides obtained via CIDNP-KD with the state-of-the-art 2D [^1H, ^15N]-HSQC titration experiments measured with 30 μM PDZ2 (Figure S3).
Expression and purification were carried out as in previously reported procedures. In short, expression in Escherichia coli cells (BL21 (DE3)) and purification via Ni-NTA chromatography as the constructs used for the PDZ2 domain of human tyrosine phosphatase 1E and human PIN1 both contained N-terminal polyhistidine tags. Both protein constructs were measured in an NMR buffer consisting of 50 mM NaCl, 20 mM KPO4, and 10% D2O at pH 6.8. For the control [^1H, ^15N]-HSQC experiments, the PDZ2 domain was expressed in ^15N-enriched minimal medium.[34],[43]
All photo-CIDNP and STD-NMR experiments were recorded at 298 K on a Bruker Avance III HD 600 MHz spectrometer equipped with a cryoprobe. The [^15N, ^1H] – HSQC titration experiments of the PDZ2 domain were performed also at 298 K on another Bruker Avance IIII HD 600 MHz spectrometer equipped with a cryoprobe and SampleJet.
Peak picking was performed with the maximal peak picking tool of Mnova software. Plotting, fitting, and data analysis was done in RStudio with the workflow described above. The [^15N, ^1H]-HSQC reference affinities were analyzed with CCPNMR3.1.[62] The backbone assignment was taken from BMRB 34688.
Fig. S3: 2D [15N, 1H]-HSQC titration of peptides to hPDZ2 domain. The 2D [ 15N, 1H]-
HSQC spectra of the titration series in presence of 30 µM hPDZ2 domain and the
corresponding observed chemical shift difference of A74 plotted versus the peptide
(1 picture or pasted object on this page, not shown here)

QVSAV (RA-GEF2) [3] = target: T2, QVSAV (RA-GEF2) (Homo sapiens); assay: competition CIDNP-KD NMR (Hβ)
T2 chain: QVSAV

ENEQVSAV (RA-GEF2) [4] = target: T3, ENEQVSAV (RA-GEF2) (Homo sapiens); assay: competition CIDNP-KD NMR (Hβ)
T3 chain: ENEQVSAV

WQVSAV [5] = target: T4, WQVSAV; assay: CIDNP-KD NMR (Hβ)
T4 chain: WQVSAV

WVSAV [6] = target: T5, WVSAV; assay: CIDNP-KD NMR (Hβ)
T5 chain: WVSAV

WEQVSAV [7] = target: T6, WEQVSAV; assay: CIDNP-KD NMR (Hβ)
T6 chain: WEQVSAV

WQVSAV [8] = target: T4, WQVSAV; assay: [1H,15N]-HSQC titration (A74)
WVSAV [9] = target: T5, WVSAV; assay: [1H,15N]-HSQC titration (A74)
QVSAV (RA-GEF2) [10] = target: T2, QVSAV (RA-GEF2); assay: [1H,15N]-HSQC titration (A74)
WEQVSAV [11] = target: T6, WEQVSAV; assay: [1H,15N]-HSQC titration (A74)
ENEQVSAV (RA-GEF2) [12] = target: T3, ENEQVSAV (RA-GEF2); assay: [1H,15N]-HSQC titration (A74)
ENEQVSAV (RA-GEF2) [13] = target: T3, ENEQVSAV (RA-GEF2); assay: competition CIDNP-KD NMR (H4)
WEQVSAV [14] = target: T6, WEQVSAV; assay: CIDNP-KD NMR (H6)
WQVSAV [15] = target: T4, WQVSAV; assay: CIDNP-KD NMR (H2)
WVSAV [16] = target: T5, WVSAV; assay: CIDNP-KD NMR (H2)
WEQVSAV [17] = target: T6, WEQVSAV; assay: CIDNP-KD NMR (H2)
WQVSAV [18] = target: T4, WQVSAV; assay: CIDNP-KD NMR (H4)
WVSAV [19] = target: T5, WVSAV; assay: CIDNP-KD NMR (H4)
[20] = range over Hβ/H2/H4/H6 fits, read-out: CIDNP-KD affinity, range over the observed tryptophan protons
[21] = tryptophan H2 signal, 20 μM PDZ2 for WSAV, 10 μM for others, pH 6.8, 298 K, H2 overlaps H6 for WVSAV and WQVSAV, read-out: CIDNP-KD, H2
[22] = tryptophan H4 signal, 20 μM PDZ2 for WSAV, 10 μM for others, pH 6.8, 298 K, read-out: CIDNP-KD, H4
[23] = tryptophan H6 signal, 20 μM PDZ2 for WSAV, 10 μM for others, pH 6.8, 298 K, read-out: CIDNP-KD, H6
[24] = tryptophan Hβ signal, 20 μM PDZ2 for WSAV, 10 μM for others, 25 μM fluorescein, 450 nm, 50 mM NaCl, 20 mM KPO4, 10% D2O, pH 6.8, 298 K, single-scan, steady state, fit ± error, read-out: CIDNP-KD, Hβ
[25] = 15N–1H moiety of A74, read-out: [1H,15N]-HSQC–CSP KD, NH of A74
[26] = range over residues, read-out: [1H,15N]-HSQC–CSP KD range of all residues showing chemical shift perturbation

Kd [1, 20] [µM] | Kd [1, 21] [µM] | Kd [1, 22] [µM] | Kd [1, 23] [µM] | Kd [1, 24] [µM] | Kd [2, 25] [µM] | Kd [2, 26] [µM] | also measured | Molecule
55 to 82 | 63 ± 28 | 63 ± 16 | 55 ± 17 | 82 ± 33 | 16 ± 5 | 10 to 70 | – | CC(C)[C@H](NC(=O)[C@H](C)NC(=O)[C@H](CO)NC(=O)[C@@H](NC(=O)[C@H](CCC(N)=O)NC(=O)[C@H](CCC(=O)O)NC(=O)[C@@H](N)Cc1c[nH]c2ccccc12)C(C)C)C(=O)O [WEQVSAV] (H-WEQVSAV-OH)
19 to 200 | 74 ± 14 | 230 ± 30 | – | 27 ± 16 | 68 ± 11 | 20 to 280 | – | CC(C)[C@H](NC(=O)[C@H](C)NC(=O)[C@H](CO)NC(=O)[C@@H](NC(=O)[C@H](CCC(N)=O)NC(=O)[C@@H](N)Cc1c[nH]c2ccccc12)C(C)C)C(=O)O [WQVSAV] (H-WQVSAV-OH)
3100 to 3300 | 3300 ± 2300 | 3100 ± 1500 | 3100 ± 3200 | – | 1320 ± 160 | 200 to 4000 | – | CC(C)[C@H](NC(=O)[C@H](C)NC(=O)[C@H](CO)NC(=O)[C@@H](N)Cc1c[nH]c2ccccc12)C(=O)O [WSAV] (H-WSAV-OH)
80 to 330 | 80 ± 60 | 330 ± 80 | – | 170 ± 40 | 108 ± 10 | 50 to 400 | – | CC(C)[C@H](NC(=O)[C@H](C)NC(=O)[C@H](CO)NC(=O)[C@@H](NC(=O)[C@@H](N)Cc1c[nH]c2ccccc12)C(C)C)C(=O)O [WVSAV] (H-WVSAV-OH)
– | – | – | – | – | – | – | Kd (QVSAV (RA-GEF2) [3]): 580 µM; Kd (ENEQVSAV (RA-GEF2) [4]): 35 µM; Kd (WQVSAV [5]): 27 µM; Kd (WVSAV [6]): 170 µM; Kd (WEQVSAV [7]): 82 µM; Kd (WQVSAV [8]): 68 µM; Kd (WVSAV [9]): 108 µM; Kd (QVSAV (RA-GEF2) [10]): 155 µM; Kd (WEQVSAV [11]): 16 µM; Kd (ENEQVSAV (RA-GEF2) [12]): 17 µM; Kd (ENEQVSAV (RA-GEF2) [13]): 91 µM; Kd (WEQVSAV [14]): 55 µM; Kd (WQVSAV [15]): 74 µM; Kd (WVSAV [16]): 80 µM; Kd (WEQVSAV [17]): 63 µM; Kd (WQVSAV [18]): 230 µM; Kd (WVSAV [19]): 330 µM | PDZ2 domain of human tyrosine phosphatase 1E (hPTP1E) PDZ2 (protein) DIFEVELAKNDNSLGISVTGGVNTSVRHGGIYVKAVIPQGAAESDGRIHKGDRVLAVNGVSLEGATHKQAVETLRNTGQVVHLLLEKGQSP

Source: paper PMC11228983, “Rapid Protein–Ligand Affinity Determination by Photoinduced Hyperpolarized NMR” (Journal of the American Chemical Society, 2024)
